{"source": "paper PMC4281096", "about": "(Journal of Medicinal Chemistry, 2014)", "key": {"[1]": {"conditions": "ref [24], cited from earlier work; for isomerization after 6 days: acetonitrile/water solution"}, "[2]": {"system": "SJSA-1 osteosarcoma tumor cell line"}, "[3]": {"conditions": "17D 200 mg/kg or 31 100 mg/kg, daily oral 14 days"}, "[4]": {"biological_target": "recombinant human His-tagged MDM2 protein (residues 1–118) (Homo sapiens, UniProt Q00987)", "sequence (Q00987 1-118)": "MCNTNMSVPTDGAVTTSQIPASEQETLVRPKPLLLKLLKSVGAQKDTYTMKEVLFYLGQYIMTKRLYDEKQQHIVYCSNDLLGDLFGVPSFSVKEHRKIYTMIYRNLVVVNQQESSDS", "conditions": "in words"}, "[5]": {"system": "SJSA-1 osteosarcoma xenografts", "conditions": "100 mg/kg, orally daily for 14 days"}, "[6]": {"system": "p53 activation and apoptosis in SJSA-1 tumor tissue", "conditions": "mouse, in vivo, po, 100 mg/kg"}}, "data": [{"smiles": "CC(C)(C)C[C@@H]1N[C@@H](C(=O)N[C@H]2C[C@@](C)(O)C2)[C@H](c2cccc(Cl)c2F)[C@]12C(=O)Nc1cc(Cl)ccc12", "note": "[Compound 3]", "values": [{"measurement": "% composition of compound in 1:1 CH3CN/H2O, 0 h", "setting": "[1]; 0 h", "value": 100, "unit": "%"}, {"measurement": "isomerization after 6 days", "setting": "[1]", "value": 2.3, "unit": "%"}]}, {"smiles": "CC1(C)N[C@@H](C(=O)N[C@H]2CC[C@H](O)CC2)[C@H](c2cccc(Cl)c2F)[C@]12C(=O)Nc1cc(Cl)ccc12", "note": "[Compound 12D, (3R,4′S,5′R)-6-Chloro-4′-(3-chloro-2-fluorophenyl)-N-((1R,4R)-4-hydroxycyclohexyl)-2′,2′-dimethyl-2-oxospiro[indoline-3,3′-pyrrolidine]-5′-carboxamide]", "values": [{"measurement": "IC50 values in inhibition of cell growth", "setting": "[2]", "value": "low micromolar range"}]}, {"smiles": "CCCC1(CCC)N[C@@H](C(=O)N[C@H]2CC[C@H](O)CC2)[C@H](c2cccc(Cl)c2F)[C@]12C(=O)Nc1cc(Cl)ccc12", "note": "[Compound 14D, (3R,4′S,5′R)-6-Chloro-4′-(3-chloro-2-fluorophenyl)-N-((1r,4R)-4-hydroxycyclohexyl)-2-oxo-2′,2′-di-n-propylspiro[indoline-3,3′-pyrrolidine]-5′-carboxamide]", "values": [{"measurement": "IC50 values in inhibition of cell growth", "setting": "[2]", "value": "low micromolar range"}]}, {"smiles": "O=C(N[C@H]1CC[C@H](O)CC1)[C@@H]1NC2(CCC2)[C@]2(C(=O)Nc3cc(Cl)ccc32)[C@H]1c1cccc(Cl)c1F", "note": "[Compound 15C, (3′S,4′S,5′R)-6″-Chloro-4′-(3-chloro-2-fluorophenyl)-N-((1R,4R)-4-hydroxycyclohexyl)-2″-oxodispiro[cyclobutane-1,2′-pyrrolidine-3′,3″-indoline]-5′-carboxamide]", "values": [{"measurement": "IC50 values in inhibition of cell growth", "setting": "[2]", "value": "low micromolar range"}]}, {"smiles": "O=C(N[C@H]1CC[C@H](O)CC1)[C@@H]1NC2(CCC2)[C@@]2(C(=O)Nc3cc(Cl)ccc32)[C@H]1c1cccc(Cl)c1F", "note": "[Compound 15D, (3′R,4′S,5′R)-6″-Chloro-4′-(3-chloro-2-fluorophenyl)-N-((1R,4R)-4-hydroxycyclohexyl)-2″-oxodispiro[cyclobutane-1,2′-pyrrolidine-3′,3″-indoline]-5′-carboxamide]", "values": [{"measurement": "IC50 values in inhibition of cell growth", "setting": "[2]", "value": "low micromolar range"}]}, {"smiles": "O=C(N[C@H]1CC[C@H](O)CC1)[C@@H]1NC2(CCCC2)[C@@]2(C(=O)Nc3cc(Cl)ccc32)[C@H]1c1cccc(Cl)c1F", "note": "[Compound 16D, (3′R,4′S,5′R)-6″-Chloro-4′-(3-chloro-2-fluorophenyl)-N-((1R,4R)-4-hydroxycyclohexyl)-2″-oxodispiro[cyclopentane-1,2′-pyrrolidine-3′,3″-indoline]-5′-carboxamide]", "values": [{"measurement": "IC50 values in inhibition of cell growth", "setting": "[2]", "value": "sub-micromolar"}]}, {"smiles": "O=C(N[C@H]1CC[C@H](O)CC1)[C@@H]1NC2(CCCCC2)[C@@]2(C(=O)Nc3cc(Cl)ccc32)[C@H]1c1cccc(Cl)c1F", "note": "[Compound 17D, (3′R,4′S,5′R)-6″-Chloro-4′-(3-chloro-2-fluorophenyl)-N-((1R,4R)-4-hydroxycyclohexyl)-2″-oxodispiro[cyclohexane-1,2′-pyrrolidine-3′,3″-indoline]-5′-carboxamide]", "values": [{"measurement": "signs of toxicity during or after the treatment", "setting": "[3]", "value": "did not show any signs of toxicity"}, {"measurement": "weight loss", "setting": "[3]", "value": "no weight loss"}, {"measurement": "IC50 values in inhibition of cell growth", "setting": "[2]", "value": "sub-micromolar"}]}, {"smiles": "N[C@@H](C(=O)N[C@H]1CC[C@H](O)CC1)[C@H](c1cccc(Cl)c1F)C1C(=O)Nc2cc(Cl)ccc21", "note": "(stereo partly drawn) [Compound 20]", "values": [{"measurement": "binding to MDM2", "setting": "[4]", "value": "does not bind to MDM2"}]}, {"smiles": "O=C(NCCN1CCOCC1)[C@@H]1NC2(CCC2)[C@]2(C(=O)Nc3cc(Cl)ccc32)[C@H]1c1cccc(Cl)c1F", "note": "[Compound 22C]", "values": [{"measurement": "IC50 values in inhibition of cell growth", "setting": "[2]", "value": "low micromolar range"}]}, {"smiles": "O=C(NCCN1CCOCC1)[C@@H]1NC2(CCC2)[C@@]2(C(=O)Nc3cc(Cl)ccc32)[C@H]1c1cccc(Cl)c1F", "note": "[Compound 22D]", "values": [{"measurement": "IC50 values in inhibition of cell growth", "setting": "[2]", "value": "low micromolar range"}]}, {"smiles": "O=C(NCCN1CCOCC1)[C@@H]1NC2(CCCCC2)[C@@]2(C(=O)Nc3cc(Cl)ccc32)[C@H]1c1cccc(Cl)c1F", "note": "[Compound 23D]", "values": [{"measurement": "IC50 values in inhibition of cell growth", "setting": "[2]", "value": "sub-micromolar"}]}, {"smiles": "O=C(NCC[C@H](O)CO)[C@@H]1NC2(CCC2)[C@]2(C(=O)Nc3cc(Cl)ccc32)[C@H]1c1cccc(Cl)c1F", "note": "[Compound 25C]", "values": [{"measurement": "IC50 values in inhibition of cell growth", "setting": "[2]", "value": "low micromolar range"}]}, {"smiles": "O=C(NCC[C@H](O)CO)[C@@H]1NC2(CCC2)[C@@]2(C(=O)Nc3cc(Cl)ccc32)[C@H]1c1cccc(Cl)c1F", "note": "[Compound 25D]", "values": [{"measurement": "IC50 values in inhibition of cell growth", "setting": "[2]", "value": "low micromolar range"}]}, {"smiles": "O=C(NCC[C@H](O)CO)[C@@H]1NC2(CCCCC2)[C@@]2(C(=O)Nc3cc(Cl)ccc32)[C@H]1c1cccc(Cl)c1F", "note": "[Compound 26D]", "values": [{"measurement": "IC50 values in inhibition of cell growth", "setting": "[2]", "value": "sub-micromolar"}]}, {"smiles": "C[C@]1(O)C[C@@H](NC(=O)[C@@H]2NC3(CCC3)[C@]3(C(=O)Nc4cc(Cl)ccc43)[C@H]2c2cccc(Cl)c2F)C1", "note": "[Compound 28C]", "values": [{"measurement": "IC50 values in inhibition of cell growth", "setting": "[2]", "value": "low micromolar range"}]}, {"smiles": "C[C@]1(O)C[C@@H](NC(=O)[C@@H]2NC3(CCCCC3)[C@@]3(C(=O)Nc4cc(Cl)ccc43)[C@H]2c2cccc(Cl)c2F)C1", "note": "[Compound 29D]", "values": [{"measurement": "IC50 values in inhibition of cell growth", "setting": "[2]", "value": "sub-micromolar"}]}, {"smiles": "O=C(O)c1ccc(NC(=O)[C@@H]2NC3(CCCCC3)[C@@]3(C(=O)Nc4cc(Cl)ccc43)[C@H]2c2cccc(Cl)c2F)cc1", "note": "[Compound 31, 4-((3′R,4′S,5′R)-6″-Chloro-4′-(3-chloro-2-fluorophenyl)-2″-oxodispiro[cyclohexane-1,2′-pyrrolidine-3′,3″-indoline]-5′-carboxamido)benzoic Acid]", "values": [{"measurement": "signs of toxicity during or after the treatment", "setting": "[3]", "value": "did not show any signs of toxicity"}, {"measurement": "weight loss", "setting": "[3]", "value": "no weight loss"}, {"measurement": "mice with no detectable tumor", "setting": "[5]; day 25, of eight mice", "value": "three"}, {"measurement": "tumor regression", "setting": "[5]; in words", "value": "achieved significant tumor regression"}, {"measurement": "PARP cleavage (apoptosis induction) in tumor tissue", "setting": "[6]", "value": "robust cleavage of PARP"}, {"measurement": "p53 activation (accumulation of p53, MDM2 and p21 proteins) in tumor tissue", "setting": "[6]", "value": "effectively activated p53"}]}, {"smiles": "CC(C)(C)C[C@@H]1N[C@@H](C(=O)NCCN2CCOCC2)[C@H](c2cccc(Cl)c2F)[C@]12C(=O)Nc1cc(Cl)ccc12", "note": "[MI-63]", "values": [{"measurement": "isomerization after 6 days", "setting": "[1]", "value": 17.3, "unit": "%"}]}, {"smiles": "CC(C)(C)C[C@@H]1N[C@@H](C(=O)NCC[C@H](O)CO)[C@H](c2cccc(Cl)c2F)[C@]12C(=O)Nc1cc(Cl)ccc12", "note": "[MI-147]", "values": [{"measurement": "isomerization after 6 days", "setting": "[1]", "value": 8.6, "unit": "%"}]}]}
